Measurements as given in patent US9840494B2, “Quinazoline derivative” (Tianjin Hemay Oncology Pharmaceutical Co., Ltd., priority 2013, dated 2017).
Like-named read-outs stand apart in the source and are kept apart here.

Assay: Bioavailability assay in rats, Experiment I (dihydrochloride)
Format: in vivo
Conditions: Wistar rats; for half-life: read-out: T½ elimination half-life (converted)
Procedure: Experiment I. Bioavailability Assay for N-[4-(3-chloro-4-fluorophenylamino)-7-(2-methoxyethoxy)quinazolin-6-yl]-2-[1-(2-methoxyethyl)piperidin-4-ylidene]acetamide Dihydrochloride in Rats
12 Wistar rats (male, weighing 200-220 g) were purchased from Beijing Vital River Laboratory Animal Technology Co., Ltd. License No.: SCXK (Beijing) 2007-0001.
2.1 30 mg of N-[4-(3-chloro-4-fluorophenylamino)-7-(2-methoxyethoxy)quinazolin-6-yl]-2-[1-(2-methoxyethyl)piperidin-4-ylidene]acetamide dihydrochloride was weighted, and 6 ml of ultrapure water was added thereto to prepare a sample solution (5 mg/ml)) for use in intravenous administration.
2.2 30 mg of N-[4-(3-chloro-4-fluorophenylamino)-7-(2-methoxyethoxy)quinazolin-6yl]-2-[1-(2-methoxyethyl)piperidin-4-ylidene]acetamide dihydrochloride was weighted, and 12 ml of ultrapure water was added thereto to prepare a sample solution (2.5 mg/ml)) for use in intragastric administration.
4.1.1 HPLC Conditions: chromatographic column: octadecyl-bonded silica gel as filler (4.6 mm×50 mm, 1.8 μm), Agilent; mobile phase: methanol: 5 mM ammonium acetate (PH4.0) (60: 40); flow rate: 1 ml/min; column temperature: 40° C.
Ion: 544.3→457.1 (N-[4-(3-chloro-4-fluorophenylamino)-7-(2-methoxyethoxy)quinazolin-6-yl]-2-[1-(2-methoxyethyl)piperidin-4-ylidene]acetamide dihydrochloride)
Dwell Time: 80; fragment voltage: 180; collision energy: 25;
1 mg of N-[4-(3-chloro-4-fluorophenylamino)-7-(2-methoxyethoxy)quinazolin-6-yl]-2-[1-(2-methoxyethyl)piperidin-4-ylidene]acetamide dihydrochloride was weighted and formulated into a solution in methanol (1 mg/ml)). The solution was then diluted stepwise into standard solutions of 50 ng/ml, 100 ng/ml, 200 ng/ml, 500 ng/ml, 1 μg/ml, 2 μg/ml, 5 μg/ml, 10 μg/ml, 20 μg/ml, 50 μg/ml, and 100 μg/ml. 10 μl of the standard solutions were separately pipetted into centrifuge tubes (1.5 ml). 10 μl of internal standard (1 μg/ml Lipitor solution in methanol) was added thereto. 100 μl of rat plasma was then added thereto. The mixture was vortexed. Then 200 μl of acetonitrile was added to precipitate protein, then vortexed for 1 min and centrifuged at 16000 r/min for 8 min 10 μl of the supernatant was directly injected for measurement.
12 rats were randomly divided into two groups, i.e. six rats per group. These rats were fasted and ad libitum accessed to water for 12 hours before administration. Blank blood (about 0.5 ml) of each rat was withdrawn, and then N-[4-(3-chloro-4-fluorophenylamino)-7-(2-methoxyethoxy)quinazolin-6-yl]-2-[1-(2-methoxyethyl)piperidin-4-ylidene]acetamide dihydrochloride (20 mg/kg) was administrated via intragastric gavage and tail intravenous injection, respectively. Blood (about 0.5 ml) was withdrawn from the orbital venous plexus at different time points after the administration (blood collection points for tail intravenous administration were: 5 min, 15 min, 0.5 h, 1 h, 2 h, 3 h, 4 h, 6 h, 8 h, 12 h, 18 h, 24 h, 30 h; and blood collection time-points for intragastric administration were: 5 min, 10 min, 20 min, 30 min, 45 min, 1 h, 2 h, 3 h, 4 h, 6 h, 8 h, 12 h, 18 h, 24 h, 30 h). The blood was drawn into a heparinized centrifuge tube and centrifuged at 8000 r/min for 10 min 100 μl of the plasma was pipetted into a centrifuge tube (1.5 ml), and 10 μl of internal standard (1 μg/ml atorvastatin hemi-calcium salt solution in methanol) was added thereto. The resulting mixture was vortexed. Then 200 μl of acetonitrile was added to precipitate protein, vortexed for 1 min and centrifuged at 16000 r/min for 8 min The supernatant was recovered, and 10 μl of the supernatant was directly injected for detection.
5.1 A standard curve with the natural logarithm of the sample concentration as abscissa and the natural logarithm of the peak area ratio of the sample to the internal standard as ordinate was established as: y=1.008x−4.149; R2=0.998
Method for the calculation of bioavailability: F=(AUCig×Div)/(AUCiv×Dig)×100% […]

[1] = male, rat, plasma, oral, 20 mg/kg ig, read-out: Average Plasma Drug Concentration
[2] = male, rat, plasma, po, 20 mg/kg ig
[3] = male, rat, plasma, 20 mg/kg iv, read-out: Average Plasma Drug Concentration

In the case of `COCCOc1cc2ncnc(Nc3ccc(F)c(Cl)c3)c2cc1NC(=O)C=C1CCN(CCOC)CC1.Cl.Cl` [Compound 2, N-[4-(3-chloro-4-fluorophenylamino)-7-(2-methoxyethoxy)quinazolin-6yl]-2-[1-(2-methoxyethyl)piperidin-4-ylidene]acetamide dihydrochloride], the “K (elimination rate constant)” value (20 mg/kg iv) is reported as 0.14, the bioavailability (male, rat, plasma, oral, 20 mg/kg ig vs 20 mg/kg iv) is reported as 56.9% and the concentration at 0.167 h (male, rat, plasma, oral, 20 mg/kg ig, 0.167 h, read-out: Average Plasma Drug Concentration) is reported as 39.4 ng/mL. For the same compound, the concentration at 0.33 h (male, rat, plasma, oral, 20 mg/kg ig, 0.33 h, read-out: Average Plasma Drug Concentration) was 145 ng/mL, the concentration at 0.5 h [1] was 202 ng/mL and the concentration at 0.75 h (male, rat, plasma, oral, 20 mg/kg ig, 0.75 h, read-out: Average Plasma Drug Concentration) was 285 ng/mL. It also gave a concentration at 1 h [1] of 342 ng/mL, a concentration at 2 h [1] of 342 ng/mL and a concentration at 3 h [1] of 406 ng/mL. It also gave a concentration at 4 h [1] of 468 ng/mL, a concentration at 6 h [1] of 536 ng/mL and a concentration at 8 h [1] of 495 ng/mL. The concentration at 12 h [1] was 330 ng/mL, the concentration at 18 h [1] was 139 ng/mL and the concentration at 24 h [1] was 72.4 ng/mL. For the same compound, the concentration at 30 h [1] was 22.7 ng/mL, the concentration at 0.083 h (male, rat, plasma, oral, 20 mg/kg intragastric gavage (ig), read-out: Average Plasma Drug Concentration) was 17.1 ng/mL and the AUC [2] was 7350 ng·h/mL. For the same compound, the half-life [2] was 4.73 h, the AUC (male, rat, plasma, 20 mg/kg iv) was 12900 ng·h/mL and the concentration at 0.25 h (male, rat, plasma, 20 mg/kg iv, 0.25 h, read-out: Average Plasma Drug Concentration) was 3240 ng/mL. The concentration at 0.5 h [3] was 2700 ng/mL, the concentration at 1 h [3] was 1720 ng/mL and the concentration at 2 h [3] was 1330 ng/mL. It also gave a concentration at 3 h [3] of 989 ng/mL, a concentration at 4 h [3] of 748 ng/mL and a concentration at 6 h [3] of 557 ng/mL. The concentration at 8 h [3] was 547 ng/mL, the concentration at 12 h [3] was 325 ng/mL and the concentration at 18 h [3] was 181 ng/mL. The concentration at 24 h [3] was 80.8 ng/mL, the concentration at 30 h [3] was 29.6 ng/mL and the half-life (male, rat, plasma, 20 mg/kg iv) was 5.18 h. It also gave a concentration at 0.083 h (male, rat, plasma, 20 mg/kg tail intravenous injection (iv), read-out: Average Plasma Drug Concentration) of 4850 ng/mL.
